Laboratory results published in ChEMBL document CHEMBL5370567 (Bioorg Med Chem, 2023).

The compounds below were run against T1, G-protein coupled bile acid receptor 1 (Homo sapiens, UniProt Q8TDU6) (assay: Positive allosteric modulator activity at human TGR5 expressed in HEK293T cells assessed as increase in cAMP accumulation incubated for 1 hr at 37 degC and further incubated for 1 hr at room temperature by glosensor cAMP accumulation assay).
T1 sequence (Q8TDU6 whole entry): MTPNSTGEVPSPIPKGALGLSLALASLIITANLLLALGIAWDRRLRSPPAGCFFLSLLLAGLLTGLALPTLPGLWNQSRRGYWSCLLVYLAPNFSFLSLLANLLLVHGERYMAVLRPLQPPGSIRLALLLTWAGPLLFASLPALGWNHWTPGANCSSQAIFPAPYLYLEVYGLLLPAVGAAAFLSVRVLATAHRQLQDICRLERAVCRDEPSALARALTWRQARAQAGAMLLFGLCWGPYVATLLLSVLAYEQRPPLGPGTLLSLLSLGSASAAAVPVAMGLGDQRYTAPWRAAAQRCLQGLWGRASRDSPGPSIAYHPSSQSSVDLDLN
Format: functional, cell-based

SMILES | EC50 [µM]
CO[C@@H]1C[C@@H]2C[C@H](O)CC[C@]2(C)[C@H]2C[C@H](O)[C@]3(C)[C@@H]([C@H](C)CCC(=O)Oc4cccc5ccccc45)CC[C@H]3[C@H]12 | 48.5
CO[C@@H]1C[C@@H]2C[C@H](O)CC[C@]2(C)[C@H]2C[C@H](O)[C@]3(C)[C@@H]([C@H](C)CCC(=O)Oc4ccc5ccccc5c4)CC[C@H]3[C@H]12 | > 100
COC(=O)CC[C@@H](C)[C@H]1CC[C@H]2[C@@H]3[C@H](OC)C[C@@H]4C[C@H](O)CC[C@]4(C)[C@H]3C[C@H](O)[C@]12C | 8
CO[C@@H]1C[C@@H]2C[C@H](O)CC[C@]2(C)[C@H]2CC(=O)[C@]3(C)[C@@H]([C@H](C)CCC(=O)OC4CCCC4)CC[C@H]3[C@H]12 | 23
CO[C@@H]1C[C@@H]2C[C@H](O)CC[C@]2(C)[C@H]2CC(=O)[C@]3(C)[C@@H]([C@H](C)CCC(=O)OCC4CC4)CC[C@H]3[C@H]12 | 9.5
CO[C@@H]1C[C@@H]2C[C@H](O)CC[C@]2(C)[C@H]2CC(=O)[C@]3(C)[C@@H]([C@H](C)CCC(=O)OCC4CCCC4)CC[C@H]3[C@H]12 | 62
CO[C@@H]1C[C@@H]2C[C@H](O)CC[C@]2(C)[C@H]2C[C@H](O)[C@]3(C)[C@@H]([C@H](C)CCC(=O)OC4CC4)CC[C@H]3[C@H]12 | 8.9
CCOC(=O)CC[C@@H](C)[C@H]1CC[C@H]2[C@@H]3[C@H](OC)C[C@@H]4C[C@H](O)CC[C@]4(C)[C@H]3C[C@H](O)[C@]12C | 19.8
CO[C@@H]1C[C@@H]2C[C@H](O)CC[C@]2(C)[C@H]2CC(=O)[C@]3(C)[C@@H]([C@H](C)CCC(=O)OC(C)C)CC[C@H]3[C@H]12 | 12
CO[C@@H]1C[C@@H]2C[C@H](O)CC[C@]2(C)[C@H]2C[C@H](O)[C@]3(C)[C@@H]([C@H](C)CCC(=O)OCC4CC4)CC[C@H]3[C@H]12 | 14.1
CO[C@@H]1C[C@@H]2C[C@H](O)CC[C@]2(C)[C@H]2C[C@H](O)[C@]3(C)[C@@H]([C@H](C)CCC(=O)OCC4CCCC4)CC[C@H]3[C@H]12 | 25.8
CO[C@@H]1C[C@@H]2C[C@H](O)CC[C@]2(C)[C@H]2C[C@H](O)[C@]3(C)[C@@H]([C@H](C)CCC(=O)OC(C)C)CC[C@H]3[C@H]12 | 9.8
CO[C@@H]1C[C@@H]2C[C@H](O)CC[C@]2(C)[C@H]2CC(=O)[C@]3(C)[C@@H]([C@H](C)CCC(=O)OC4CC4)CC[C@H]3[C@H]12 | 6.3
CO[C@@H]1C[C@@H]2C[C@H](O)CC[C@]2(C)[C@H]2C[C@H](O)[C@]3(C)[C@@H]([C@H](C)CCC(=O)OC4CCCC4)CC[C@H]3[C@H]12 | 21.8
CO[C@@H]1C[C@@H]2C[C@H](O)CC[C@]2(C)[C@H]2C[C@H](O)[C@]3(C)[C@@H]([C@H](C)CCC(=O)OCc4ccccc4)CC[C@H]3[C@H]12 | 92.5

Results, then the compound that gave them:

EC50 [µM] | SMILES
> 100 | CO[C@@H]1C[C@@H]2C[C@H](O)CC[C@]2(C)[C@H]2CC(=O)[C@]3(C)[C@@H]([C@H](C)CCC(=O)Oc4ccc5ccccc5c4)CC[C@H]3[C@H]12
76.5 | CO[C@@H]1C[C@@H]2C[C@H](O)CC[C@]2(C)[C@H]2CC(=O)[C@]3(C)[C@@H]([C@H](C)CCC(=O)OCc4ccccc4)CC[C@H]3[C@H]12
5.5 | CO[C@@H]1C[C@@H]2C[C@H](O)CC[C@]2(C)[C@H]2CC(=O)[C@]3(C)[C@@H]([C@H](C)CCC(=O)Oc4ccccc4)CC[C@H]3[C@H]12
18.5 | CO[C@@H]1C[C@@H]2C[C@H](O)CC[C@]2(C)[C@H]2C[C@H](O)[C@]3(C)[C@@H]([C@H](C)CCC(=O)Oc4ccccc4)CC[C@H]3[C@H]12
31.6 | CCOC(=O)CC[C@@H](C)[C@H]1CC[C@H]2[C@@H]3[C@H](OC)C[C@@H]4C[C@H](O)CC[C@]4(C)[C@H]3CC(=O)[C@]12C
38 | CO[C@@H]1C[C@@H]2C[C@H](O)CC[C@]2(C)[C@H]2CC(=O)[C@]3(C)[C@@H]([C@H](C)CCC(=O)Oc4cccc5ccccc45)CC[C@H]3[C@H]12
5.3 | COC(=O)CC[C@@H](C)[C@H]1CC[C@H]2[C@@H]3[C@H](OC)C[C@@H]4C[C@H](O)CC[C@]4(C)[C@H]3CC(=O)[C@]12C
